In paper PMC7934871 (JCI Insight, 2021):

Tests used:
B16 melanoma = B16 melanoma lung metastasis in C57BL/6 mice; type: in vivo, mouse
Source text: Figure 7 PS-acet.-STAT3 peptide treatment efficiently reduces mouse melanoma lung metastasis. (A) Systemic PS-acet.-STAT3 peptide treatment reduces B16 lung nodules in syngeneic mouse model compared with control treatments. The B16 lung nodules in mice treated with the indicated STAT3 peptides and vehicle (n = 5) were visualized by IF staining of gp100 and quantified by confocal microscopy and Zen software. The levels of phosphorylation of STAT3 (p-STAT3), CD69, and Foxp3 in the tumor or tumor-infiltrating CD8^+ T or CD4^+ T cells were detected by IF staining followed by confocal microscopy in B16 metastatic lung nodules upon treatments with vehicle, PO- or PS-acet.-STAT3, PS-STAT3-K685R, or PS-unacet.-STAT3 peptides as indicated. Images are representative of 5 lungs per experimental group. Scale bars: 20 μm (CD69, CD8, CD4, p-STAT3, and Foxp3) and 100 μm (gp100). White arrows indicate the immune cells. Insets: original magnification, ×40. (B) The graphs show the quantification of gp100 and p-STAT3 expression levels (MFI) or the cell population (%) of CD69^+ in CD8^+ or p-STAT3^+ in CD4^+ or Foxp3^+ in CD4^+ (data represent 5 lungs per group, n = 5). SD is shown. One-way ANOVA; ****P < 0.001.
Mouse care and experimental procedures were performed under pathogen-free conditions in accordance with established institutional guidance and approved IACUC protocols from Research Animal Care Committee of the City of Hope. For s.c. tumor challenge, 5 × 10^6 HCT116 cells were injected into NSG mice from The Jackson Laboratory or animal resource core facility at the City of Hope. After tumors reached an average size of 80~100 mm^3, mice were locally or intravenously treated with 1 mg/kg of PO- or PS-peptides (Anaspec) every day or every other day. Control animals were treated with the equal volume of HBSS (Invitrogen, Thermo Fisher Scientific). Tumor growth was measured by a digital caliper every other day. To study the effects of the modified peptides at protein and gene levels, mice were euthanized 4–6 weeks after tumor injection. B16 melanoma lung metastasis was performed by injecting 0.5 × 10^6 B16 cells into bloodstream of C57BL/6 mice (The Jackson Laboratory). One day after tumor challenge, mice were treated intravenously (retro-orbitally) with 1 mg/kg of PO- or PS-acet.-STAT3, PS-unacet.-STAT3, or PS-STAT3-K685R peptides every other day until the endpoint as indicated. Control mice were treated with HBSS. Lungs were excised from the mice, and B16 nodules were visualized by gp100 staining. Lungs were then analyzed for immune responses by immunostaining followed by confocal imaging. For mouse PDAC model, 5 × 10^6 KPC mouse cells were mixed with Matrigel and subcutaneously injected into C57BL/6 mice (The Jackson Laboratory). After tumors reached an average size of 80~100 mm^3, mice were intravenously treated with 1 mg/kg of PO- or PS-Gp130, PS-oligo, PS-SC-MYC, PS-MYC. or combined PS-Gp130/PS-MYC (0.5 mg/kg, 0.5 mg/kg) (Anaspec) every other day for 18 days. Control animals were treated with the equal volume of HBSS (Invitrogen, Thermo Fisher Scientific). Tumor growth was measured by a digital caliper every other day. To study the effects of the modified peptides at protein and gene levels, mice were euthanized at the endpoint as indicated.

HCT116 xenograft tumors = test: HCT116 xenograft in NSG mice, peritumoral treatment; type: in vivo, mouse; conditions: HCT116 s.c. in NSG mice, 1 mg/kg peritumoral every day, n = 4
Description: Mouse care and experimental procedures were performed under pathogen-free conditions in accordance with established institutional guidance and approved IACUC protocols from Research Animal Care Committee of the City of Hope. For s.c. tumor challenge, 5 × 10^6 HCT116 cells were injected into NSG mice from The Jackson Laboratory or animal resource core facility at the City of Hope. After tumors reached an average size of 80~100 mm^3, mice were locally or intravenously treated with 1 mg/kg of PO- or PS-peptides (Anaspec) every day or every other day. Control animals were treated with the equal volume of HBSS (Invitrogen, Thermo Fisher Scientific). Tumor growth was measured by a digital caliper every other day. […] Lungs were then analyzed for immune responses by immunostaining followed by confocal imaging. […] Tumor growth was measured by a digital caliper every other day. […]
(B) PS-acet.-STAT3 peptide downregulates STAT3 phosphorylation, assessed by Western blotting using tumor homogenates prepared from tumors shown in A.
(C) mRNA levels for CASP9, BIRC5 and BCL2L1 in the same tumor tissues described above were assessed by qRT-PCR. […]
(D) Treatments with PS-acet.-STAT3 peptide induced cell death, indicated by H&E staining (upper panel). […] Right panels represent quantification of Ki-67 protein levels and mean of vessel diameter (data include 5 fields of view per group). […]

In the case of “PDIPKEEAFGK685(Ac)YCRPESQEHPC-linker-T*C*C*A*T*G*A*G*C*T*T*C*C*T*G*A*T*G*C*T [PS-acet.-STAT3 peptide]”, the metastatic lung nodules (B16 melanoma; B16 i.v. in C57BL/6 mice, 1 mg/kg i.v. every other day, gp100 staining, n = 5) is reported as “striking reduction”, the “STAT3 activation (p-STAT3) in tumor cells and CD4+ T cells” value (B16 melanoma; B16 lung nodules, IF staining, confocal) is reported as “significantly decreased” and the “infiltration of CD69+ activated CD8+ T cells in metastatic B16 lung nodules” value (B16 melanoma; IF staining, confocal) is reported as “increased”. For the same substance, the “tumor-associated FoxP3+CD4+ T cells (regulatory T cells)” value (B16 melanoma; IF staining, confocal) was “concomitantly reduced” and the tumor growth (HCT116 xenograft tumors) was “antitumor effects”.
